# Data published in ChEMBL document CHEMBL4251748, “Discovery of Cytochrome P450 4F11 Activated Inhibitors of Stearoyl Coenzyme A Desaturase” (J Med Chem, 2018).
# Assays:
# NCI-H1155 [1] = assay: Cytotoxicity against human NCI-H1155 cells expressing pLVX empty vector incubated for 4 days; assay type: functional, cell-based; conditions: NCI-H1155, 96 h
# NCI-H2122 [2] = assay: Cytotoxicity against human NCI-H2122 cells incubated for 4 days; assay type: functional, cell-based; conditions: NCI-H2122, 96 h
# NCI-H1155 [3] = assay: Cytotoxicity against human NCI-H1155 cells expressing CYP4F11 incubated for 4 days in presence of sodium oleate; assay type: functional, cell-based; conditions: NCI-H1155, 96 h
# NCI-H1155 [4] = assay: Cytotoxicity against human NCI-H1155 cells expressing CYP4F11 incubated for 4 days; assay type: functional, cell-based; conditions: NCI-H1155, 96 h
# NCI-H1155 [5] = assay: Cytotoxicity against human NCI-H1155 cells incubated for 4 days in presence of sodium oleate; assay type: functional, cell-based; conditions: NCI-H1155, 96 h
# [6] = Half life in mouse liver S9 fraction by LC-MS/MS analysis; assay type: ADME, subcellular
# [7] = target: T1, Acyl-CoA desaturase 1 (Mus musculus) (UniProt P13516); assay: Inhibition of SCD1 in CD1 mouse liver at 100 nM using stearoyl [9,10-3H] CoA as substrate and NADPH incubated for 2 hrs by scintillation counting method
# T1 sequence (whole entry): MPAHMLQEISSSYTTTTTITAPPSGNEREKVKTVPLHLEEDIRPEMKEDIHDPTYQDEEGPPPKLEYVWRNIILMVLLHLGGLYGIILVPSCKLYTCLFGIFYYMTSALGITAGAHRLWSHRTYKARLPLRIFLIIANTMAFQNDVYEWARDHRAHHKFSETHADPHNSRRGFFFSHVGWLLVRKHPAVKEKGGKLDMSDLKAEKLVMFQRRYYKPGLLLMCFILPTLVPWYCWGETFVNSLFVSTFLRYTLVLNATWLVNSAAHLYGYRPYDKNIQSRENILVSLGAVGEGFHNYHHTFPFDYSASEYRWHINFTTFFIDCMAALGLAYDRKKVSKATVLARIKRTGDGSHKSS
# HCC4017 = assay: Cytotoxicity against human HCC4017 cells; assay type: functional, cell-based
# HCC44 [8] = assay: Cytotoxicity against human HCC44 cells; assay type: functional, cell-based
# NCI-H2122 [9] = assay: Cytotoxicity against human NCI-H2122 cells at > 50 uM relative to control; assay type: functional
# NCI-H2122 [10] = assay: Cytotoxicity against human NCI-H2122 cells; assay type: functional, cell-based
# HCC95 [11] = assay: Cytotoxicity against human HCC95 cells; assay type: functional, cell-based
# HCC44 [12] = assay: Cytotoxicity against human HCC44 cells at > 50 uM relative to control; assay type: functional
# NCI-H1395 = assay: Cytotoxicity against human NCI-H1395 cells; assay type: functional, cell-based
# NCI-H2009 = assay: Cytotoxicity against human NCI-H2009 cells; assay type: functional, cell-based
# NCI-H460 [13] = assay: Cytotoxicity against human NCI-H460 cells; assay type: functional, cell-based
# NCI-H460 [14] = assay: Cytotoxicity against human NCI-H460 cells at > 50 uM relative to control; assay type: functional
# NCI-H1993 = assay: Cytotoxicity against human NCI-H1993 cells; assay type: functional, cell-based
# [15] = Cytotoxicity against human HCC366 cells; assay type: functional, cell-based
# NCI-H1155 [16] = assay: Cytotoxicity against human NCI-H1155 cells; assay type: functional, cell-based
# HCC95 [17] = assay: Cytotoxicity against human HCC95 cells at > 50 uM relative to control; assay type: functional
# [18] = Cytotoxicity against human NCI-H2073 cells; assay type: functional, cell-based
# [19] = Cytotoxicity against human NCI-H1819 cells; assay type: functional, cell-based
# CYP4F11 = target: T2, CYP4F11 (Homo sapiens, UniProt Q9HBI6); assay: Drug metabolism in human NCI-H1155 cells assessed as CYP4F11-meidated O-demethylation by measuring half life at 500 nM by LC-MS/MS analysis; assay type: ADME, cell-based
# T2 sequence (Q9HBI6 whole entry): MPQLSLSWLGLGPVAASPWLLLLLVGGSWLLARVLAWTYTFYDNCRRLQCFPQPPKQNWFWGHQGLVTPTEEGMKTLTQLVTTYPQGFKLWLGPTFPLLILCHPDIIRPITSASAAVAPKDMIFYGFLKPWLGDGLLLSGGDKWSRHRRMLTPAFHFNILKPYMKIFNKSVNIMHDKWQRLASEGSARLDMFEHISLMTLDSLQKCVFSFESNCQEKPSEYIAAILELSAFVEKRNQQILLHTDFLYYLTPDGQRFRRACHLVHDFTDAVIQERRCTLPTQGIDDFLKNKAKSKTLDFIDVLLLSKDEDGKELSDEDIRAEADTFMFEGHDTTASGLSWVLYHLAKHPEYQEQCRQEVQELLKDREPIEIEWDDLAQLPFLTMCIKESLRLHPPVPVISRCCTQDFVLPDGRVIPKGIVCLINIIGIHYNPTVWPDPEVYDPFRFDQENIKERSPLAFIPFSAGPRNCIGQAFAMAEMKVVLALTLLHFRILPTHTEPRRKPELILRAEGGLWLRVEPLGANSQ
# [20] = Drug level in human NCI-H1155 cells after 4 hrs by LC-MS/MS analysis; assay type: ADME, cell-based; conditions: nci-h1155, 4 h
# [21] = Half life in human NCI-H1155 cells at 500 nM by LC-MS/MS analysis; assay type: ADME, cell-based
# NCI-H1155 [22] = assay: Ratio of EC50 for cytotoxicity against human NCI-H1155 cells expressing CYP4F11 incubated for 4 days in presence of sodium oleate to EC50 for cytotoxicity against human NCI-H1155 cells expressing CYP4F11 incubated for 4 days in absence of sodium oleate; assay type: functional
# [23] = target: T1, Acyl-CoA desaturase 1 (Mus musculus); assay: Inhibition of SCD1 in CD1 mouse liver at 3 uM using stearoyl [9,10-3H] CoA as substrate and NADPH incubated for 2 hrs by scintillation counting method
Structure (SMILES),half-life [6] [h],half-life at 0.5 µM (CYP4F11) [h],Drug uptake [20] [nM],half-life at 0.5 µM [21] [h],EC50 (NCI-H1155 [1]) [µM],EC50 (NCI-H2122 [2]) [µM],EC50 (NCI-H1155 [3]) [µM],EC50 (NCI-H1155 [4]) [µM],EC50 (NCI-H1155 [5]) [µM],further results
O=C(NCCc1ccc(O)cc1)NC(=O)c1ccc(COc2ccccc2)cc1,> 4,–,–,–,0.007,0.011,6.4,0.051,12,inhibition [7]: 96%
COc1ccc(CCNC(=O)C(=O)NC2CC2)cc1,–,4.7,80,> 48,> 50,> 50,> 50,> 50,> 50,–
COc1ccc(CCNC(=O)NC(=O)c2ccc(COc3ccccc3)cc2)cc1,2.63,7.5,1670,> 48,> 50,0.01,3.6,0.034,> 50,Ratio EC50 (NCI-H1155 [22]): 100
C#CCOc1ccc(C(=O)c2ccc(NC(=O)C(=O)NCCc3ccc(O)cc3)cc2)cc1,0.217,–,–,–,0.008,0.058,> 50,0.21,> 50,inhibition [23]: > 98%

# More lines, main results first:
half-life [6] [h],half-life at 0.5 µM (CYP4F11) [h],Drug uptake [20] [nM],half-life at 0.5 µM [21] [h],Structure (SMILES),EC50 (NCI-H1155 [1]) [µM],EC50 (NCI-H2122 [2]) [µM],EC50 (NCI-H1155 [3]) [µM],EC50 (NCI-H1155 [4]) [µM],EC50 (NCI-H1155 [5]) [µM],further results
0.117,–,–,–,COc1ccc(CCNC(=O)C(=O)Nc2ccc(Cl)cc2)cc1,36,0.22,> 50,0.67,> 50,EC50 (HCC4017): > 10 µM; EC50 (HCC44 [8]): < 1 µM; Activity (NCI-H2122 [9]): >95%; EC50 (NCI-H2122 [10]): < 1 µM; EC50 (HCC95 [11]): < 1 µM; Activity (HCC44 [12]): >95%; EC50 (NCI-H1395): > 10 µM; EC50 (NCI-H2009): > 10 µM; EC50 (NCI-H460 [13]): < 1 µM; Activity (NCI-H460 [14]): >95%; EC50 (NCI-H1993): > 10 µM; EC50 [15]: > 10 µM; EC50 (NCI-H1155 [16]): > 10 µM; Activity (HCC95 [17]): >95%; EC50 [18]: > 10 µM; EC50 [19]: > 10 µM
–,–,340,> 48,COc1ccc(CNC(=O)C(=O)Nc2ccc(Cl)cc2)cc1,–,–,–,–,–,–
1.18,–,–,–,O=C(NCCc1ccc(O)cc1)C(=O)Nc1ccc(Cl)cc1,0.39,0.26,21,0.37,37,–
–,28,870,> 48,C#CCOc1ccc(C(=O)c2ccc(NC(=O)C(=O)NCCc3ccc(OC)cc3)cc2)cc1,8.5,0.028,> 50,0.12,16,–
